Data: ChEMBL document CHEMBL4145614, “Cyclopeptides from the Sponge Stylissa flabelliformis” (J Nat Prod, 2018)
Where a SMILES comes first, the peptide text is derived from it.

What was measured:
K562 = test: Cytotoxicity against human K562 cells after 72 hrs by sulforhodamine B assay; format: functional, cell-based; details: Homo sapiens, K562, 72 h
A549 = test: cells; details: Homo sapiens, A549, 72 h
Description: Cytotoxicity against human A549 cells after 72 hrs by sulforhodamine B assay

[1] = tested on: Trichophyton mentagrophytes; test: Antifungal activity against Trichophyton mentagrophytes IFO 40996 measured after 48 to 72 hrs; format: functional
Salmonella typhimurium = test: Antibacterial activity against Salmonella typhimurium ATCC 14028 measured after 24 hrs; format: functional, Salmonella enterica subsp. enterica serovar Typhimurium; details: Salmonella enterica, ATCC 14028, 24 h
MDA-MB-231 = test: Cytotoxicity against human MDA-MB-231 cells after 72 hrs by sulforhodamine B assay; format: functional, cell-based; details: Homo sapiens, MDA-MB-231, 72 h
[2] = molecular target: Sodium/potassium-transporting ATPase; test: Inhibition of potassium-activated sodium/potassium ATPase in human placenta using 3-O-methylfluorescein phosphate as substrate measured for 90 secs by fluorescence assay
Escherichia coli = test: Antibacterial activity against Escherichia coli ATCC 25922 measured after 24 hrs; format: functional; details: ATCC 25922, 24 h
Trichophyton rubrum = test: Antifungal activity against Trichophyton rubrum IFO 9185 measured after 48 to 72 hrs; format: functional
Candida albicans = test: Antifungal activity against Candida albicans ATCC 10231 measured after 48 to 72 hrs; format: functional
SNU-638 = test: Cytotoxicity against human SNU638 cells after 72 hrs by sulforhodamine B assay; format: functional, cell-based; details: Homo sapiens, SNU-638, 72 h
Proteus vulgaris = test: Antibacterial activity against Proteus vulgaris ATCC 3851 measured after 24 hrs; format: functional; details: ATCC 3851, 24 h
Micrococcus luteus = test: Antibacterial activity against Micrococcus luteus IFC 12708 measured after 24 hrs; format: functional; details: IFC 12708, 24 h
Staphylococcus aureus = test: Antibacterial activity against Staphylococcus aureus ATCC 6538P measured after 24 hrs; format: functional
HCT-116 = test: Cytotoxicity against human HCT116 cells after 72 hrs by sulforhodamine B assay; format: functional, cell-based; details: Homo sapiens, HCT-116, 72 h
Aspergillus fumigatus = test: Antifungal activity against Aspergillus fumigatus HIC 6094 measured after 48 to 72 hrs; format: functional
Bacillus spizizenii = test: Antibacterial activity against Bacillus subtilis ATCC 6633 measured after 24 hrs; format: functional; details: ATCC 6633, 24 h
SK-HEP1 = test: Cytotoxicity against human SKHEP1 cells after 72 hrs by sulforhodamine B assay; format: functional, cell-based; details: Homo sapiens, SK-HEP1, 72 h
[3] = Inhibition of recombinant bacterial sortase A using Dabcyl-QALPETGEE-Edans as substrate measured after 1 hr by fluorescence assay; design: species or system Bacteria

SMILES | IC50 (K562) | IC50 (A549) | MIC [1] | MIC (Salmonella typhimurium) | IC50 (MDA-MB-231) | IC50 [2] | MIC (Escherichia coli) | MIC (Trichophyton rubrum) | MIC (Candida albicans) | IC50 (SNU-638) | MIC (Proteus vulgaris) | MIC (Micrococcus luteus) | MIC (Staphylococcus aureus) | IC50 (HCT-116) | MIC (Aspergillus fumigatus) | MIC (Bacillus spizizenii) | IC50 (SK-HEP1) | IC50 [3]
CC[C@H](C)[C@@H]1NC(=O)[C@@H]2CCCN2C(=O)[C@H](Cc2ccc(O)cc2)NC(=O)[C@@H]2CCCN2C(=O)[C@H]([C@@H](C)CC)NC(=O)[C@@H]2CCCN2C(=O)[C@H](Cc2ccccc2)NC1=O (HELM PEPTIDE1{F.P.I.P.Y.P.I}$PEPTIDE1,PEPTIDE1,1:R1-7:R2$$$V2.0) | 33 µM | 6.7 µM | > 128 µM | > 128 µM | 9.1 µM | > 100 µM | > 128 µM | > 128 µM | > 128 µM | 37 µM | > 128 µM | > 128 µM | > 128 µM | 3.9 µM | > 128 µM | > 128 µM | 7.7 µM | > 100 µM
CC[C@H](C)[C@@H]1NC(=O)[C@@H]2CCCN2C(=O)[C@@H]2CCCN2C(=O)[C@H](C(C)C)NC(=O)[C@H](Cc2ccc(O)cc2)NC(=O)[C@@H]2CCCN2C(=O)[C@@H]2CCCN2C(=O)[C@H](CC(C)C)NC(=O)[C@H](C(C)C)NC(=O)[C@H](Cc2ccccc2)NC1=O (HELM PEPTIDE1{F.V.L.P.P.Y.V.P.P.I}$PEPTIDE1,PEPTIDE1,1:R1-10:R2$$$V2.0) | 1.1 µM | 1.4 µM | > 128 µM | > 128 µM | 8.6 µM | > 100 µM | > 128 µM | > 128 µM | > 128 µM | 2.2 µM | > 128 µM | > 128 µM | > 128 µM | 1 µM | > 128 µM | > 128 µM | 12 µM | > 100 µM
CC[C@H](C)[C@@H]1NC(=O)[C@H](Cc2ccccc2)NC(=O)[C@@H]2CCCN2C(=O)[C@H](Cc2ccccc2)NC(=O)[C@@H]2CCCN2C(=O)[C@H](CCC(N)=O)NC(=O)[C@@H]2CCCN2C(=O)[C@H](Cc2ccccc2)NC1=O [PHAKELLI STATIN 11] (HELM PEPTIDE1{F.I.F.P.Q.P.F.P}$PEPTIDE1,PEPTIDE1,1:R1-8:R2$$$V2.0) | 5.6 µM | 2.8 µM | > 128 µM | > 128 µM | 3.2 µM | > 100 µM | > 128 µM | > 128 µM | > 128 µM | 6.9 µM | > 128 µM | > 128 µM | > 128 µM | 1.6 µM | > 128 µM | > 128 µM | 1.7 µM | > 100 µM
COc1cc([C@@H]2c3cc4c(cc3[C@@H](O[C@@H]3O[C@@H]5CO[C@@H](C)O[C@H]5[C@H](O)[C@H]3O)[C@H]3COC(=O)[C@H]23)OCO4)cc(OC)c1O [ETOPOSIDE] | 1.3 µM | 0.72 µM | – | – | 4.4 µM | – | – | – | – | 0.43 µM | – | – | – | 0.68 µM | – | – | 0.93 µM | –
CC[C@H](C)[C@@H]1NC(=O)[C@@H]2CCCN2C(=O)[C@H](Cc2ccccc2)NC(=O)[C@@H]2CCCN2C(=O)[C@H](Cc2ccc(O)cc2)NC(=O)[C@@H]2CCCN2C(=O)[C@H]([C@@H](C)CC)NC1=O [PHAKELLISTATIN 2] (HELM PEPTIDE1{F.P.I.I.P.Y.P}$PEPTIDE1,PEPTIDE1,1:R1-7:R2$$$V2.0) | 3.2 µM | 0.66 µM | > 128 µM | > 128 µM | 1.3 µM | > 100 µM | > 128 µM | > 128 µM | > 128 µM | 1.6 µM | > 128 µM | > 128 µM | > 128 µM | 0.71 µM | > 128 µM | > 128 µM | 0.77 µM | > 100 µM
CC[C@H](C)[C@@H]1NC(=O)[C@H](C)NC(=O)[C@H](CC(C)C)NC(=O)[C@@H]2CCCN2C(=O)[C@H](CC(=O)O)NC(=O)[C@H](Cc2ccc(O)cc2)NC(=O)[C@@H]2CCCN2C1=O (HELM PEPTIDE1{A.I.P.Y.D.P.L}$PEPTIDE1,PEPTIDE1,1:R1-7:R2$$$V2.0) | > 50 µM | > 50 µM | > 128 µM | > 128 µM | > 50 µM | > 100 µM | > 128 µM | > 128 µM | > 128 µM | > 50 µM | > 128 µM | > 128 µM | > 128 µM | > 50 µM | > 128 µM | > 128 µM | > 50 µM | > 100 µM
